Results from patent US20230233576A1, “ECLITASERTIB FOR USE IN TREATING CONDITIONS INVOLVING SYSTEMIC HYPERINFLAMMATORY RESPONSE” (priority 2020, published 2023).

How the values were obtained:
[1] = tested on: peripheral cytokine and biomarker levels; assay: Phase 1b severe COVID-19 study: peripheral cytokine and biomarker levels; format: in vivo, human; conditions: Day 7 vs baseline, LOCF, Safety population
Source text: The biomarker variables included pro-inflammatory cytokines (such as IL 4, IL-6, IL-10, IL-17, TNFα, and IFNγ) and RIPK1 PD cytokines/chemokines (such as MIP1α and MIP1β) that are elevated in participants with SARS-CoV-2.
The exploratory PD/biomarker endpoint was the change from baseline in peripheral cytokine and biomarker levels up to EOT.
Each analyte was selected, and the assay analytically validated based on reports in the literature and in-house research.

[2] = tested on: SARS-COV-2 viral load in blood; assay: Phase 1b severe COVID-19 study: quantitative SARS-COV-2 viral load in blood; conditions: for Viral load in plasma: <1660 CP/ML SARS-COV2, number of participants / Viral load in plasma: <1660 CP/ML SARS-COV2, share of participants (in parentheses) / Viral load in plasma: INCONCLUSIVE, number of participants / Viral load in plasma: INCONCLUSIVE, share of participants (in parentheses) / Viral load in plasma: NO SARS-COV2 DETECTED, number of participants / Viral load in plasma: NO SARS-COV2 DETECTED, share of participants (in parentheses) / Viral load in plasma: POSITIVE RESULT, number of participants / Viral load in plasma: POSITIVE RESULT, share of participants (in parentheses): 600 mg (N = 41); for Viral load in plasma: Positive result, Mean / Viral load in plasma: Positive result, Median: 600 mg, participants with positive result
Source text: The clinical assessment in this study included both the assessment of clinical laboratory variables (CRP, laboratory markers of severe COVID-19 [D-Dimer, hematology parameters and thrombolytic therapy and vasopressor treatment]), oxygenation variables (saturated oxygen [SpO2], SpO2/fraction of inspired oxygen [FiO2] ratio), and clinical status variables (7-point clinical scale). The pharmacodynamic assessment included the measurement of peripheral biomarkers (pro-inflammatory cytokines and RIPK1 PD cytokines/chemokines), and optional measurement of viral load of SARS-CoV-2.
Exploratory clinical assessments endpoints included: • Change from baseline in ferritin and LDH at Day 7 and EOT • Proportion of participants per category of the 7-point clinical scale at EOT • Time to improvement by 2 points in category of 7-point clinical scale • Quantitative SARS-COV-2 viral load in blood at baseline and on Day 3, 5, 7 and EOT
Summary of quantitative measurement of SARS-COV-2 plasma viral load over time (at baseline, Day 3, 5, 7, and EOT) is provided in Table 28. An overall trend of decrease viral load and increased number of negative SARS-COV-2 tests were observed over time. Due to a high variability in the viral load values, no interpretation could be drawn for the effect of treatment on the viral load.

CN1C(=O)[C@@H](NC(=O)c2nnc(Cc3ccccc3)[nH]2)COc2cccnc21 [RIPK1 Inhibitor, (S)-5-benzyl-N-(5-methyl-4-oxo-2,3,4,5-tetrahydropyrido[3,2-b][1,4]oxazepin-3-yl)-4H-1,2,4-triazole-3-carboxamide]
Interleukin 8 - Cytokines (pg/mL): RIPK1 Inhibitor 600 mg Fold-Change [1]: 0.71 (47) | Interleukin 10 (pg/mL): RIPK1 Inhibitor 600 mg Fold-Change [1]: 0.48 (47) | Macrophage Inflammatory Protein 1 Beta (pg/mL): RIPK1 Inhibitor 600 mg Fold-Change [1]: 1.07 (41) | Macrophage-Derived Chemokine (pg/mL): RIPK1 Inhibitor 600 mg Fold-Change [1]: 1.05 (41) | Monocyte Chemotactic Protein 1 (pg/mL): RIPK1 Inhibitor 600 mg Fold-Change [1]: 0.69 (41) | Ratio of Interleukin 6 and Interleukin 10 (RATIO): RIPK1 Inhibitor 600 mg Fold-Change [1]: 0.87 (47) | Tumor Necrosis Factor alpha (pg/mL): RIPK1 Inhibitor 600 mg Fold-Change [1]: 0.85 (47) | okine (C-C Motif) Ligand 17: RIPK1 Inhibitor 600 mg Fold-Change [1]: 1.56 (41) | Viral load in plasma: <1660 CP/ML SARS-COV2, number of participants ([2]; DAY 01 (baseline, predose)): 14 | Viral load in plasma: <1660 CP/ML SARS-COV2, share of participants (in parentheses) ([2]; DAY 01 (baseline, predose)): (34.1) | Viral load in plasma: INCONCLUSIVE, number of participants ([2]; DAY 01 (baseline, predose)): 1 | Viral load in plasma: INCONCLUSIVE, share of participants (in parentheses) ([2]; DAY 01 (baseline, predose)): (2.4) | Viral load in plasma: NO SARS-COV2 DETECTED, number of participants ([2]; DAY 01 (baseline, predose)): 11 | Viral load in plasma: NO SARS-COV2 DETECTED, share of participants (in parentheses) ([2]; DAY 01 (baseline, predose)): (26.8) | Viral load in plasma: POSITIVE RESULT, number of participants ([2]; DAY 01 (baseline, predose)): 7 | Viral load in plasma: POSITIVE RESULT, share of participants (in parentheses) ([2]; DAY 01 (baseline, predose)): (17.1) | Viral load in plasma: <1660 CP/ML SARS-COV2, number of participants ([2]; DAY 03): 12 | Viral load in plasma: <1660 CP/ML SARS-COV2, share of participants (in parentheses) ([2]; DAY 03): (29.3) | Viral load in plasma: INCONCLUSIVE, number of participants ([2]; DAY 03): 2 | Viral load in plasma: INCONCLUSIVE, share of participants (in parentheses) ([2]; DAY 03): (4.9) | Viral load in plasma: NO SARS-COV2 DETECTED, number of participants ([2]; DAY 03): 16 | Viral load in plasma: NO SARS-COV2 DETECTED, share of participants (in parentheses) ([2]; DAY 03): (39.0) | Viral load in plasma: POSITIVE RESULT, number of participants ([2]; DAY 03): 4 | Viral load in plasma: POSITIVE RESULT, share of participants (in parentheses) ([2]; DAY 03): (9.8) | Viral load in plasma: <1660 CP/ML SARS-COV2, number of participants ([2]; DAY 07): 1 | Viral load in plasma: <1660 CP/ML SARS-COV2, share of participants (in parentheses) ([2]; DAY 07): (2.4) | Viral load in plasma: INCONCLUSIVE, number of participants ([2]; DAY 07): 2 | Viral load in plasma: INCONCLUSIVE, share of participants (in parentheses) ([2]; DAY 07): (4.9) | Viral load in plasma: NO SARS-COV2 DETECTED, number of participants ([2]; DAY 07): 12 | Viral load in plasma: NO SARS-COV2 DETECTED, share of participants (in parentheses) ([2]; DAY 07): (29.3) | Viral load in plasma: POSITIVE RESULT, number of participants ([2]; DAY 07): 1 | Viral load in plasma: POSITIVE RESULT, share of participants (in parentheses) ([2]; DAY 07): (2.4) | Viral load in plasma: <1660 CP/ML SARS-COV2, number of participants ([2]; EOT): 4 | Viral load in plasma: <1660 CP/ML SARS-COV2, share of participants (in parentheses) ([2]; EOT): (9.8) | Viral load in plasma: INCONCLUSIVE, number of participants ([2]; EOT): 1 | Viral load in plasma: INCONCLUSIVE, share of participants (in parentheses) ([2]; EOT): (2.4) | Viral load in plasma: NO SARS-COV2 DETECTED, number of participants ([2]; EOT): 28 | Viral load in plasma: NO SARS-COV2 DETECTED, share of participants (in parentheses) ([2]; EOT): (68.3) | Viral load in plasma: POSITIVE RESULT, number of participants ([2]; EOT): 0 | Viral load in plasma: Positive result, Mean ([2]; DAY 01 (baseline, predose)): 30217.6 copies/mL | Viral load in plasma: Positive result, Median ([2]; DAY 01 (baseline, predose)): 7560.0 copies/mL | Viral load in plasma: Positive result, Mean ([2]; DAY 03): 7505.0 copies/mL | Viral load in plasma: Positive result, Median ([2]; DAY 03): 6332.5 copies/mL | Viral load in plasma: Positive result, Mean ([2]; DAY 07): 6240.0 copies/mL | Viral load in plasma: Positive result, Median ([2]; DAY 07): 6240.0 copies/mL
